How the values were obtained:
[1] = test system: PANC-1/IDX-1 cells; test: RT-PCR of islet β-cell specific transcripts, PANC-1/IDX-1 cells; assay type: cell-based, human; details: Exendin-9 100 nM for 72 h
Protocol: PANC-1 cells were transfected with a pcDNA3 construct (Invitrogen; Carlsbad, Calif.) harboring the wild-type full-length IDX-1 cDNA using LipoTAXI (Catalog N. 204110; Mammalian Transfection Kit, Stratagene; La Jolla, Calif.). Control cells were transfected with the vector alone. The selection of positive (i.e. transfected) cells was carried out by culturing the cells in the presence of 400 μg/ml of G418 sulfate (GN-04, Omega; Tarzana, Calif.).
(§1) After the treatment of ARIP and PANC-1 cells with GLP-1, Exendin-9, or vehicle, for the described length of time and the various doses, the culture medium was removed and the cells were washed (twice) with serum-free medium. Total RNA was isolated using the TRiazol-method (Gibco-BRL), and treated with DNase (Amplification Grade, GibcoBRL) in 20 mmol/l Tris-HCL (pH 8.4), 2 mmol/l MgCl2, and 50 mmol/l KCl to remove any traces of contaminating genomic DNA. RNA (2.5 μg) was then subjected to reverse transcription (RT reagents; Promega; Madison, Wis.). RT-PCR was undertaken in a volume of 50 μl of buffer containing 50 mmol/l KCl, 10 mmol/l Tris-HCl, 3.5 mmol/l MgCl2, 200 μmol/l each dNTPs, and 0.4 μmol/l each of sense and antisense primers to rat or human insulin (depending on the specific cell from which the RNA was extracted). Amplification was performed for 30 cycles at the denaturing temperature of 94° C. for 1 min, annealing temperature of 60° C. for 45 sec, and an extension temperature of 72° C. for 1 min. […] These included more irregular and variable cell shapes, with a cytoplasm less homogenous and “rougher” in appearance than control culture.
(§2) Treatment with GLP-1 induces the differentiation of ductal epithelial cells into insulin-producing cells. FIG. 2 illustrates a series of cell cultures grown with or without GLP-1 (10 nM) for 72 h. […] Preabsorption of the antibody with an excess of human recombinant insulin prevented the staining of insulin-positive GLP-1 treated cells (data not shown). While treatment with GLP-1 turned the majority of ARIP cells into […] For β-actin, the annealing temperature was raised to 64° C. for 1 min and gene-specific primers were used. For GLP-1-receptor (GLP-R) the annealing temperature used was 55° C. All other experimental conditions to amplify GLUT2, glucokinase, and GLP-R mRNAs were identical to those described for the amplification of insulin mRNA. RT and PCR conditions for human transcripts were identical to those described for rat mRNAs.
(§3) Southern blotting with species-specific full length cDNA probes for insulin, GLUT-2, glucokinase, GLP-1 receptor and β-actin was performed as previously described. Y. Wang, R. Perfetti, N. H. Greig, H. W. Holloway, K. A. DeOre, C. Montrose-Rafizadeh, D. Elahi, J. M. Egan, “Glucagon-like peptide-1 can reverse the age-related decline in glucose tolerance in rats.” J Clin Invest 99:2883-2889, 1997.

[2] = test system: ARIP cells; test: RT-PCR of islet β-cell specific transcripts, ARIP cells; assay type: cell-based, rat; details: Exendin-9 100 nM for 72 h
Protocol: as §1, §2, §3

[3] = test system: diabetic rats; details: adult animals after subtotal pancreatectomy; cited from earlier work

Substance | effect on expression of β-cell-specific genes [1] | effect on expression of β-cell-specific genes [2] | effect on islet mass [3]
Exendin-9: the peptide receptor antagonist of GLP-1 | inhibited the expression of GLUT-2, insulin and glucokinase | inhibited the expression of GLUT-2, insulin and glucokinase | 
exendin4: an analog of the incretin hormone glucagon-like-peptide-1 |  |  | increase islet mass

Reference: US6642003B2, “Human glucose-dependent insulin-secreting cell line” (Cedars-Sinai Medical Center, priority 2001, dated 2003)
